Data on four molecules can be found in article PMC6478789, “A chemical toolbox for the study of bromodomains and epigenetic signaling” (Nature Communications, 2019).

SMILES strings stand for the structures.

The target of one experiment is BRD8(2) (Homo sapiens, UniProt Q9H0E9). As to the kind of experiment: BROMOscan ligand-binding assay.
A further experiment has as its target BRD8(1) (Homo sapiens, UniProt Q9H0E9). Kind of experiment: BROMOscan ligand-binding assay.
The target in the next experiment is T1, MYST1 (Homo sapiens, UniProt Q9H7Z6).
T1 sequence (Q9H7Z6 1-458): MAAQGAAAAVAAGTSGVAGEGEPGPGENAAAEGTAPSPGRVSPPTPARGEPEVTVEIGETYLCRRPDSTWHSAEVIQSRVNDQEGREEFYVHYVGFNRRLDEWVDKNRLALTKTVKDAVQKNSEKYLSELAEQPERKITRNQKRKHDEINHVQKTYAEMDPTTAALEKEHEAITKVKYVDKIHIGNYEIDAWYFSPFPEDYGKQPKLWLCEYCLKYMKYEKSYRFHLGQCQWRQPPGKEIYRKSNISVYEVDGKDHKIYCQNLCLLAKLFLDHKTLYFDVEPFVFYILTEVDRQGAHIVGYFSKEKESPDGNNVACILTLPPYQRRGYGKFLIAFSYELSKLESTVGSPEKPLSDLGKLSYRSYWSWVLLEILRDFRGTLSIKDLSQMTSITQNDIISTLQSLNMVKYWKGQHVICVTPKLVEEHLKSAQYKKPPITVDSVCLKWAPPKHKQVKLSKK
As to the kind of experiment: Histone acetyltransferase (HAT) activity assay. The experiment is classed as biochemical. Conditions: read-out: HATs Activity (%).

Another experiment concerns the target T2, HAT1 (Homo sapiens, UniProt O14929).
T2 sequence (O14929 1-419): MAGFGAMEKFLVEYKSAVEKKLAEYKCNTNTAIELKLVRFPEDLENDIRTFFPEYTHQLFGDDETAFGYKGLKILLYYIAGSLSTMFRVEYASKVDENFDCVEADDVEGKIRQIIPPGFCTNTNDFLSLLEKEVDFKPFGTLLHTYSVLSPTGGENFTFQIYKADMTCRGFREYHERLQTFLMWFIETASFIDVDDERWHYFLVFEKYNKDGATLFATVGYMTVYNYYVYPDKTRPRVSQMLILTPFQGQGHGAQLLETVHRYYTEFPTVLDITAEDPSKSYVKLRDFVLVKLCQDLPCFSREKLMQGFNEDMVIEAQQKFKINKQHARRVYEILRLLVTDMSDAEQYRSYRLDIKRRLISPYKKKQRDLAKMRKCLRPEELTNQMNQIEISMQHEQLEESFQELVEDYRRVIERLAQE
As to the kind of experiment: Histone acetyltransferase (HAT) activity assay. The experiment is classed as biochemical. To be noted: read-out: HATs Activity (%).

For a further experiment, the target named is MYST3 (Homo sapiens, UniProt Q92794). Kind of experiment: Histone acetyltransferase (HAT) activity assay. The experiment is classed as biochemical. Conditions: read-out: HATs Activity (%).
For the next experiment, the target named is BRD2(1) (Homo sapiens, UniProt P25440). Kind of experiment: BROMOscan ligand-binding assay.
Another experiment addresses BRD4(1) (Homo sapiens, UniProt O60885). As to the kind of experiment: BROMOscan ligand-binding assay.
A further experiment deals with BRD3(1) (Homo sapiens, UniProt Q15059). As to the kind of experiment: BROMOscan ligand-binding assay. Conditions: KD, BROMOscan Gene Symbol BRD3(1).
In a further experiment the target is GCN5L2 (Homo sapiens, UniProt Q92830). As to the kind of experiment: Histone acetyltransferase (HAT) activity assay. It is filed as biochemical. Conditions: read-out: HATs Activity (%).
Another experiment concerns the target EP300 (Homo sapiens, UniProt Q09472). As to the kind of experiment: Histone acetyltransferase (HAT) activity assay. It is filed as biochemical. To be noted: read-out: HATs Activity (%).
For the next experiment, the target named is T3, TRIM24 (Homo sapiens, UniProt O15164).
T3 sequence (O15164 899-1004 limits assumed): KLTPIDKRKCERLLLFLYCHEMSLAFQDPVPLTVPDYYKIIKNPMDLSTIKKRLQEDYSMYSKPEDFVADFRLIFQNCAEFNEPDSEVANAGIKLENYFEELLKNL
As to the kind of experiment: BROMOscan ligand-binding assay. To be noted: KD, TRIM24(Bromo.).

The next experiment addresses T4, BRPF1 (Homo sapiens, UniProt P55201).
T4 sequence (P55201 628-732 limits assumed): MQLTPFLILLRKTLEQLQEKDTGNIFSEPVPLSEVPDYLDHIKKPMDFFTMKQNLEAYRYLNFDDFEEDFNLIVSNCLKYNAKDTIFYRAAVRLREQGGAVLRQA
Kind of experiment: BROMOscan ligand-binding assay. To be noted: KD, BRPF1.

A further experiment concerns the target CREBBP (Homo sapiens, UniProt Q92793). Kind of experiment: BROMOscan ligand-binding assay. To be noted: KD, CREBBP.
A further experiment has as its system RBBP1. As to the kind of experiment: Temperature shift assay (non-BRD reader domains). The experiment is classed as binding. Conditions: 10µM compound. As for the experimental part:
(§1) Temperature shift assays have been described by Fedorov et al.[46]. Recombinant protein domains (bromodomain or kinases) at a concentration of 2 μM in 10 mM HEPES, pH 7.5, and 500 mM NaCl were mixed with 10 μM of chemical probes. Temperature-dependent protein unfolding profiles were measured using a Real-Time PCR Mx3005p machine (Stratagene).
(§2) Wu et al., Supplementary figures and tables 14
(§3) Supplementary Table 3: Selectivity screening data (non-BRD reader domains):
(§4) Temperature shift assay data of BRD probes screened against a diver se panel of methyl-lysine
(§5) reader domains. Compounds were screened a concentration of 10 µM. Shown are temperature

For a further experiment, the target named is TDRD3 (Homo sapiens, UniProt Q9H7E2). Kind of experiment: Temperature shift assay (non-BRD reader domains). It is filed as binding. To be noted: 10µM compound. As to the method: as §1, §2, §3, §4, §5
The next experiment addresses WDR5 (Homo sapiens, UniProt P61964). As to the kind of experiment: Temperature shift assay (non-BRD reader domains). To be noted: 10µM compound. It is filed as binding. As for the experimental part:
as §1, §2, §3, §4, §5

For another experiment, the target named is EED (Homo sapiens, UniProt O75530). As to the kind of experiment: Temperature shift assay (non-BRD reader domains). The experiment is classed as binding. To be noted: 10µM compound. As for the experimental part: as §1, §2, §3, §4, §5
For another experiment, the target named is BRPF3 (Homo sapiens, UniProt Q9ULD4). Kind of experiment: Temperature shift assay (non-BRD reader domains). The experiment is classed as binding. Conditions: 10µM compound. As for the experimental part:
as §1, §2, §3, §4, §5

Another experiment addresses T5, UHRF1 (Homo sapiens, UniProt Q96T88).
T5 sequence (Q96T88 126-285 limits assumed): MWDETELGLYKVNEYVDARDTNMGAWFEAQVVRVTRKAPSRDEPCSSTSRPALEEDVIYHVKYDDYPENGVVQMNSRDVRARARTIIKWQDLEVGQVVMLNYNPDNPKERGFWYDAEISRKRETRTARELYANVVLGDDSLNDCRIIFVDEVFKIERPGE
Kind of experiment: Temperature shift assay (non-BRD reader domains). It is filed as binding. Conditions: 10µM compound. As for the experimental part:
as §1, §2, §3, §4, §5

Another experiment deals with 53BP1 (Homo sapiens, UniProt Q12888). As to the kind of experiment: Temperature shift assay (non-BRD reader domains). To be noted: 10µM compound. It is filed as binding. As to the method: as §1, §2, §3, §4, §5
Setting [1] is: KD (BROMOscan), sheet prints no unit (nM).

TDRD3, sequence (Q9H7E2 555-615 limits assumed, species assumed): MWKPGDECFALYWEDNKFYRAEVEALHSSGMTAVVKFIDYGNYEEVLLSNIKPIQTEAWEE
GCN5L2, sequence (Q92830 whole entry, species assumed): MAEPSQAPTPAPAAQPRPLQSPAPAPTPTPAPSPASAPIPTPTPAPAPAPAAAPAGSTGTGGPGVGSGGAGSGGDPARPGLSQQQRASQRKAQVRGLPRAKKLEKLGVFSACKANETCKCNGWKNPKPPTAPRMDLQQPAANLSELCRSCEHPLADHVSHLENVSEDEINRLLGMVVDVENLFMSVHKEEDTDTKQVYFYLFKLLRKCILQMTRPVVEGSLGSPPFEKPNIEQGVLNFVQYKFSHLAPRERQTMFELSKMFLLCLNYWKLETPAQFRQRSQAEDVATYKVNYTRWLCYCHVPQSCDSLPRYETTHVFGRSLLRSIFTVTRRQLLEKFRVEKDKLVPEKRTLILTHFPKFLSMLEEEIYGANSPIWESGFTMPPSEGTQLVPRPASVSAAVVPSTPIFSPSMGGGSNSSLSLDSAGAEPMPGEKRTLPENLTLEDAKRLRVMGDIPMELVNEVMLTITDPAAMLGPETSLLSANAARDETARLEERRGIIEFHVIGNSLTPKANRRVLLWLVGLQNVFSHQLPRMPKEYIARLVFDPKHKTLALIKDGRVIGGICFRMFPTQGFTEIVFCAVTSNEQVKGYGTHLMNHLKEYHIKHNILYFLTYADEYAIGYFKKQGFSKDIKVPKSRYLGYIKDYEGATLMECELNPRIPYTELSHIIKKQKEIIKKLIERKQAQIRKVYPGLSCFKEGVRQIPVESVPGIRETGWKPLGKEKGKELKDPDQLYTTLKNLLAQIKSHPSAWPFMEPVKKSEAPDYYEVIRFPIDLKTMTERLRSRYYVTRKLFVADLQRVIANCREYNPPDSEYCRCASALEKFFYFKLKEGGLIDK
EED, sequence (O75530 whole entry, species assumed, the tested form may be a part): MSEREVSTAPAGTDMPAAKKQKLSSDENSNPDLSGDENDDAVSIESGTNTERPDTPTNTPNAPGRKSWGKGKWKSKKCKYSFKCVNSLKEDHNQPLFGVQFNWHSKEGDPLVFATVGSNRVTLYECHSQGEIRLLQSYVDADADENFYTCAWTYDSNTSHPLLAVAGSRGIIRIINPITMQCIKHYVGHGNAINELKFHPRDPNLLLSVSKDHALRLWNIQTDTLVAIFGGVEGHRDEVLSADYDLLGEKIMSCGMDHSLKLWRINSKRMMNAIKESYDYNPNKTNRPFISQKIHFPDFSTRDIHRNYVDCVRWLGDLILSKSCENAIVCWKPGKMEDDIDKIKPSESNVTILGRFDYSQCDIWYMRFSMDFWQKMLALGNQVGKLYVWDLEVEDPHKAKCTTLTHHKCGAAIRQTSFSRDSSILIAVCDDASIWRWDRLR
MYST3, sequence (Q92794 whole entry, species assumed): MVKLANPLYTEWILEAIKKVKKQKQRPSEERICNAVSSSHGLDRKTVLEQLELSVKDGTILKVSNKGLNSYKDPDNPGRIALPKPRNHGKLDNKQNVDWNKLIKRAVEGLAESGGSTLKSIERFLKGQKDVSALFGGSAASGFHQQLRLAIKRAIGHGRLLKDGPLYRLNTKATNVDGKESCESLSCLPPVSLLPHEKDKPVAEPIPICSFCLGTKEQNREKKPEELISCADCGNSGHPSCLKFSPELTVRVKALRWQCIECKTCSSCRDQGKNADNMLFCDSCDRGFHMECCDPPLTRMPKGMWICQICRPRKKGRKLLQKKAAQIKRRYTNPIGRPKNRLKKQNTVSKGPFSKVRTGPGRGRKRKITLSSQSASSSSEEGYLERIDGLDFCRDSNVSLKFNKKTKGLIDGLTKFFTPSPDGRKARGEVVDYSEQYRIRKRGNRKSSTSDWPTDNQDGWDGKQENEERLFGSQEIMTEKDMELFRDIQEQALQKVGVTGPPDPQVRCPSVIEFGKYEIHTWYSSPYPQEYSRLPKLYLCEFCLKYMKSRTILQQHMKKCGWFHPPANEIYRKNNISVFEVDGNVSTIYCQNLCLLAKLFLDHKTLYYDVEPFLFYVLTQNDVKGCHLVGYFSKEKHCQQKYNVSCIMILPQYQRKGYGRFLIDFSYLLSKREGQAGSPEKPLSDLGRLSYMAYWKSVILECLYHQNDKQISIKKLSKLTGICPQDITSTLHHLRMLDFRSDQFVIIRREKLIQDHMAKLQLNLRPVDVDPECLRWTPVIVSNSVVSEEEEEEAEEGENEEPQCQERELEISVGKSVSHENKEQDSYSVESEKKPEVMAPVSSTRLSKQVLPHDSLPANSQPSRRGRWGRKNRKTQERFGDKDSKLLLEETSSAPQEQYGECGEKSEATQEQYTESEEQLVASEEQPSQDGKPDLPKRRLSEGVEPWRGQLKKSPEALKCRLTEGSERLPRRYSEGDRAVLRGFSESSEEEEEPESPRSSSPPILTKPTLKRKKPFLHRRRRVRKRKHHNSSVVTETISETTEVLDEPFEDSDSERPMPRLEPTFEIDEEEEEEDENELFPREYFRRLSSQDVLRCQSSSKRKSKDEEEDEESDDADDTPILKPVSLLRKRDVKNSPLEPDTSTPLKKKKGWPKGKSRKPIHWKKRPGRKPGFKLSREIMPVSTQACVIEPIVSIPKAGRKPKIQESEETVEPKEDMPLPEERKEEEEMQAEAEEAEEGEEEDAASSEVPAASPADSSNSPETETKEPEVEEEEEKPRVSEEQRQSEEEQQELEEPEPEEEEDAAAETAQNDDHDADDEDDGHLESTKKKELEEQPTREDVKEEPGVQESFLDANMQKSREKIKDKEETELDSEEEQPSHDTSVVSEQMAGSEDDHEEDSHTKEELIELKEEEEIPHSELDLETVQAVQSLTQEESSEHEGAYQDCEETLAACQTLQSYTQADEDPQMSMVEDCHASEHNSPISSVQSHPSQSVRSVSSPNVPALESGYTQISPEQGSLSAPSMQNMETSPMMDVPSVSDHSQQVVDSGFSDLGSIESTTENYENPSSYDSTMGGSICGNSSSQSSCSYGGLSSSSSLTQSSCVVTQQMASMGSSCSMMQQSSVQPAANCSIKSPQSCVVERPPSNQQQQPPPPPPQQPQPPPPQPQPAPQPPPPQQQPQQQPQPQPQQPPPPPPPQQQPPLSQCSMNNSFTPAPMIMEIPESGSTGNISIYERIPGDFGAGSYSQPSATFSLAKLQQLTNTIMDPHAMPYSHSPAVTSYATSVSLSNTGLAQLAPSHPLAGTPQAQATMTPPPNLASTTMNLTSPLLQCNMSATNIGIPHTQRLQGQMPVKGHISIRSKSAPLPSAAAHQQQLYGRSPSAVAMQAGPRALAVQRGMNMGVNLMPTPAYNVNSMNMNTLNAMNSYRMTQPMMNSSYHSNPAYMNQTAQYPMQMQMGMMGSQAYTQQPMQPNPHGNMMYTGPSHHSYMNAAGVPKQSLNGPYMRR
53BP1, sequence (Q12888 1484-1603 limits assumed, species assumed): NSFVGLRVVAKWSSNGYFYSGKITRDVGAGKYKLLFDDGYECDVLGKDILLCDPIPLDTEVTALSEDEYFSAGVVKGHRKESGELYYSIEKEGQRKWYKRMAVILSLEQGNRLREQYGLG
BRPF3, sequence (Q9ULD4 1076-1159 limits assumed, species assumed): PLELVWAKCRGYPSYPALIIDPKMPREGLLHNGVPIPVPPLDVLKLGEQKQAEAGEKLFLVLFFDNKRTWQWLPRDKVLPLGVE
BRD8(1), sequence (Q9H0E9 706-811 limits assumed): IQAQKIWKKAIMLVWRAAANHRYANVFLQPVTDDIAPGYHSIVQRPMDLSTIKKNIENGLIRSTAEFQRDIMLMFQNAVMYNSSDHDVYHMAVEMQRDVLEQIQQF
BRD8(2), sequence (Q9H0E9 1099-1207 limits assumed): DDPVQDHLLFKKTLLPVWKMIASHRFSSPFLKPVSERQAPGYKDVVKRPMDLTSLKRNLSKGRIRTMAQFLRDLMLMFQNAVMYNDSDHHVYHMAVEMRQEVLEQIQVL
BRD3(1), sequence (Q15059 34-140 limits assumed): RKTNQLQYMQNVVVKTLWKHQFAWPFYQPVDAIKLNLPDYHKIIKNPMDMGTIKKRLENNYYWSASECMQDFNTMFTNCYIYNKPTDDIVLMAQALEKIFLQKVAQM
CREBBP, sequence (Q92793 1085-1192 limits assumed): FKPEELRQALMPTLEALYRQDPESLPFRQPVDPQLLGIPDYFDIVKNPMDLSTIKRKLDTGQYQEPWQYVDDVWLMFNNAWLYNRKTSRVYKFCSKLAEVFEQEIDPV
BRD2(1), sequence (P25440 74-180 limits assumed): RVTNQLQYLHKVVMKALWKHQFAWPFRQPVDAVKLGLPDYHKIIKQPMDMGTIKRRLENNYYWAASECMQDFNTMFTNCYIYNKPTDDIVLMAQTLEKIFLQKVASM
Text for BRD2(1): (§6) BROMOscan is a binding assay based on the well-known KINOMEscan technology. This assay measures the binding of a DNA-tagged bromodomain to an immobilized BRD ligand. If an inhibitor is present, it will compete with the bromodomain binding to the immobilized ligand, resulting in reduction of a quantitative PCR (qPCR) signal in a dose-dependent manner.
Text for BRD3(1): as §6
Text for BRD4(1): as §6
Text for BRD8(1): as §6
Text for BRD8(2): as §6
Text for BRPF1: as §6
Text for CREBBP: as §6
Text for TRIM24: as §6

Take `CCC(=O)N1CCOc2c(cc(-c3ccc(OC)c(OC)c3)cc2OCC2CCCN(C)C2)C1` (stereo not drawn) [I-CBP112]: the Kd on BRD8(2) (setting [1]) is greater than 30000 nM; at BRD8(2) (KD, BROMOscan Gene Symbol BRD8(2)) it was greater than 100000 nM; at BRD8(1) (setting [1]) it was greater than 30000 nM; at BRD8(1) (KD, BROMOscan Gene Symbol BRD8(1)) it was greater than 100000 nM; at BRD2(1), 5.7 µM; on BRD4(1) it was 2.9 µM. Further, the Kd at BRD3(1) came out at 5.4 µM; at TRIM24, 12 µM; at BRPF1, 20 µM; on CREBBP it was 0.06 µM. The activity at 1 µM at MYST1 is 98%; at HAT1, 100%; on MYST3, 98%; on GCN5L2, 105%; on EP300, 97%. Besides, the activity at 10 µM turned out to be 103% on MYST1; 94% at HAT1; 99% at MYST3; 102% at GCN5L2; 99% on EP300. The “Tm (C) 10µM, temperature shift” value with RBBP1 was -0.1 Kelvin; on TDRD3, -0.6 Kelvin; on WDR5 it was -0.2 Kelvin; at EED it was -0.5 Kelvin; at BRPF3, 0.0 Kelvin; on UHRF1 it was 0.0 Kelvin. Further, the “Tm (C) 10µM, temperature shift” value at 53BP1 came to 0.3 Kelvin.
Consider `Cc1c(NC(=O)c2cc(C(N)=O)nc3cc(F)ccc23)c(C(F)(F)F)nn1Cc1ccc(C#N)cc1` [BAY-876], for which the activity at 1 µM at MYST1 worked out at 96%; on HAT1 it was 97%; on MYST3, 99%; at GCN5L2 it was 100%; on EP300 it was 99%. The activity at 10 µM on MYST1 is 91%; at HAT1, 89%; on MYST3 it was 101%; at GCN5L2, 97%; at EP300 it was 95%. The “Tm (C) 10µM, temperature shift” value is listed as -0.3 Kelvin in the experiment with RBBP1; -1.0 Kelvin at TDRD3; 0.4 Kelvin on WDR5; -0.7 Kelvin on EED; -0.3 Kelvin at BRPF3; -0.2 Kelvin on UHRF1. Moreover, the “Tm (C) 10µM, temperature shift” value on 53BP1 was found to be 0.0 Kelvin.
For the molecule `CO[C@H]1CNC[C@@H](OCC2CCC(F)(F)CC2)[C@@H]1Nc1ncc(-c2cncc(C)c2)c2cc(C)c(=O)[nH]c12` [GSK8814], the activity at 1 µM was found to be 99% on MYST1; 100% on HAT1; 96% on MYST3; 102% at GCN5L2; 96% at EP300. For the same molecule, the activity at 10 µM at MYST1 came to 103%; at HAT1, 95%; on MYST3 it was 102%; at GCN5L2 it was 100%; at EP300 it was 102%. Besides, the “Tm (C) 10µM, temperature shift” value in the experiment on RBBP1 is -0.1 Kelvin; at TDRD3 it was -0.6 Kelvin; on WDR5, 0.2 Kelvin; on EED, -0.4 Kelvin; on BRPF3, -0.2 Kelvin; on UHRF1 it was -0.2 Kelvin. In addition, at 53BP1, the “Tm (C) 10µM, temperature shift” value is -0.1 Kelvin.
On to `CN1C[C@H](Nc2cnn(C)c(=O)c2Br)C[C@H](c2ccccc2)C1` [GSK4027], for which the activity at 1 µM was determined as 102% at MYST1; 102% on HAT1; 101% at MYST3; 99% at GCN5L2; 93% on EP300. The activity at 10 µM on MYST1 stood at 98%; at HAT1 it was 89%; at MYST3, 101%; at GCN5L2, 102%; on EP300, 90%. For the same molecule, the “Tm (C) 10µM, temperature shift” value with RBBP1 was -0.7 Kelvin; on TDRD3 it was -0.6 Kelvin; at WDR5, 0.2 Kelvin; at EED, -0.7 Kelvin; on BRPF3 it was -0.3 Kelvin; on UHRF1, -0.2 Kelvin. Further, the “Tm (C) 10µM, temperature shift” value at 53BP1 is -0.1 Kelvin.

One may read the Kd as a measure of binding affinity in units of concentration. Low values mean higher affinity, high ones lower affinity.
